Test systems include COLO 205 colon; SK-MEL-28 melanoma; HOP-92 NSCLC; K-562 leukemia; A549 NSCLC; NCI-H522 lung; MDA-MB-231 breast; BT-549 breast; SF-268 CNS; SR leukemia; OVCAR-5 ovarian; A498 renal; RPMI-8226 leukemia; M14 melanoma; MDA-N; UACC-257 melanoma; HCT-15 colon.
Assay in all cases: NCI anticancer screen, dose series, 48 h

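Five concentrations, 48 hours, 96-well plates. Definition used: TGI = concentration required for complete inhibition of growth.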

For the compound `C=CCc1cc(-c2cc(CC=C)c(O)c(CN(CC)CC)c2)cc(CN(CC)CC)c1O`, the TGI in the experiment with COLO 205 colon is more than 82.2 µM; with SK-MEL-28 melanoma, 80.6 µM; with HOP-92 NSCLC it was 96.9 µM; in the experiment on K-562 leukemia it was more than 100 µM; in the experiment on A549 NSCLC, more than 100 µM; with NCI-H522 lung, 70.8 µM. Moreover, the TGI in the experiment with MDA-MB-231 breast was more than 87.7 µM; with BT-549 breast, more than 100 µM; in the experiment with SF-268 CNS it was more than 100 µM; in the experiment with SR leukemia, 70.6 µM; in the experiment with OVCAR-5 ovarian, 52.6 µM; with A498 renal, more than 100 µM. Moreover, the TGI in the experiment with RPMI-8226 leukemia was more than 88.1 µM; in the experiment on M14 melanoma, 23.4 µM; with MDA-N, more than 73.5 µM; in the experiment with UACC-257 melanoma, 68.5 µM; in the experiment on HCT-15 colon, 51.7 µM.
For the compound `CSc1c(C#N)c(N)nc2c(N=Nc3ccc(Br)cc3)c(N)nn12`, the TGI is 25.1 µM in the experiment on COLO 205 colon; 30.8 µM in the experiment with SK-MEL-28 melanoma; 18.9 µM in the experiment on HOP-92 NSCLC; 21.4 µM in the experiment on K-562 leukemia; 25.1 µM with A549 NSCLC; 12 µM with NCI-H522 lung. Moreover, the TGI in the experiment on MDA-MB-231 breast amounted to 15.9 µM; in the experiment with BT-549 breast, 37.3 µM; with SF-268 CNS, 13.2 µM; with SR leukemia it was 6.76 µM; with OVCAR-5 ovarian, 33.3 µM; in the experiment with A498 renal it was 52.9 µM. Also, the TGI stood at 54.7 µM in the experiment with RPMI-8226 leukemia; 24.6 µM with M14 melanoma; 18.8 µM in the experiment with MDA-N; 21.4 µM in the experiment on UACC-257 melanoma; 12 µM with HCT-15 colon.
Take `C=C1c2nc3ccccc3n2C=C(c2ccc(C)cc2)N1c1ccc(C)cc1`: the TGI was more than 89.3 µM with COLO 205 colon; more than 100 µM in the experiment on SK-MEL-28 melanoma; more than 100 µM with HOP-92 NSCLC; more than 100 µM with K-562 leukemia; more than 100 µM in the experiment on A549 NSCLC; 56.7 µM with NCI-H522 lung. Besides, the TGI in the experiment on MDA-MB-231 breast was more than 100 µM; in the experiment with BT-549 breast, more than 100 µM; with SF-268 CNS, more than 100 µM; in the experiment with SR leukemia, more than 74.3 µM; with OVCAR-5 ovarian, more than 100 µM; in the experiment with A498 renal, more than 100 µM. For the same compound, the TGI in the experiment with RPMI-8226 leukemia was more than 89.8 µM; in the experiment with M14 melanoma, more than 100 µM; in the experiment with MDA-N, more than 92.3 µM; in the experiment with UACC-257 melanoma, more than 100 µM; in the experiment on HCT-15 colon, more than 80.6 µM.
With `C/C(=C\c1ccccc1)C(=O)NCc1ccc(C(=O)NCCc2ccccc2)cc1`, the TGI in the experiment on COLO 205 colon was more than 100 µM; in the experiment on SK-MEL-28 melanoma, more than 100 µM; with HOP-92 NSCLC, 99.1 µM; with K-562 leukemia it was more than 100 µM; in the experiment with A549 NSCLC, more than 100 µM; with NCI-H522 lung, more than 100 µM. Moreover, the TGI with MDA-MB-231 breast was more than 100 µM; in the experiment on BT-549 breast it was more than 100 µM; in the experiment with SF-268 CNS, more than 39.5 µM; in the experiment with SR leukemia it was more than 100 µM; in the experiment with OVCAR-5 ovarian, more than 100 µM; in the experiment on A498 renal, more than 100 µM. In addition, the TGI in the experiment on RPMI-8226 leukemia, in the experiment with M14 melanoma, in the experiment with MDA-N, in the experiment on UACC-257 melanoma and in the experiment with HCT-15 colon was more than 100 µM each time.
With `COC(=O)/C=C\C(C#N)(C#N)N=Cc1ccccc1`, the TGI came out at 2.97 µM with COLO 205 colon; 14.3 µM in the experiment with SK-MEL-28 melanoma; 3.74 µM in the experiment with HOP-92 NSCLC; 15 µM with K-562 leukemia; 34.3 µM with A549 NSCLC; 1.67 µM in the experiment with NCI-H522 lung. For the same compound, the TGI in the experiment with MDA-MB-231 breast worked out at 30.9 µM; with BT-549 breast, 10.8 µM; with SF-268 CNS it was 11.4 µM; in the experiment on SR leukemia it was 3.36 µM; with OVCAR-5 ovarian, 38.7 µM; in the experiment with A498 renal, 33.1 µM. The TGI with RPMI-8226 leukemia is 2.88 µM; in the experiment on M14 melanoma, 5.41 µM; with MDA-N, 15.1 µM; in the experiment on UACC-257 melanoma, 12.8 µM; in the experiment with HCT-15 colon, 8.79 µM.
For `c1ccc(CN[C@]23C4C5CC6C7C5C2C7[C@@](NCc2ccccc2)(C64)N3Cc2ccccc2)cc1` (some centres not stated), the TGI in the experiment with COLO 205 colon, in the experiment with SK-MEL-28 melanoma, in the experiment with HOP-92 NSCLC, in the experiment with K-562 leukemia, with A549 NSCLC and in the experiment on NCI-H522 lung was more than 100 µM each time. Besides, the TGI with MDA-MB-231 breast, with BT-549 breast, with SF-268 CNS, with SR leukemia, in the experiment on OVCAR-5 ovarian and with A498 renal was more than 100 µM in each case. The TGI in the experiment with RPMI-8226 leukemia, in the experiment with M14 melanoma, in the experiment on MDA-N, in the experiment with UACC-257 melanoma and in the experiment with HCT-15 colon was more than 100 µM throughout.

The record behind these values is PubChem BioAssay (NCI).
